This note sets out measurements from patent US11857584B2, “Oncolytic virus growth method and antitumor agent” (KABUSHIKI KAISHA YAKULT HONSHA, priority 2017, dated 2024).

Data set [1] relates to CVB3. Kind of data set: Promotion of CVB3 proliferation (virus titer) in WiDr cells. It is filed as cell-based, coxsackievirus B3.
Data set [2] concerns CVA11. Kind of data set: Promotion of CVA11 proliferation (virus titer) in WiDr cells. It is filed as cell-based, coxsackievirus A11. The following applies: then CVA11 MOI 0.01, about 30 hours, t-test.
Data set [3] can be described thus: Body weight change (adverse event) in WiDr-bearing nude mice. The following applies: oxaliplatin 100 μg i.p. day 1; CVA11 5×10^7 PFU intratumoral days 2, 4, 6, 8, 10. As for the experimental part:
WiDr was washed with PBS and suspended in OPTI-MEM I at 5.0×10^7 cells/mL. 100 μl of the suspension containing WiDr was injected subcutaneously with a 27 G needle into the right flank of BALB/c nude mice of 6-8 weeks old. […] The tumor volume was calculated by major axis×minor axis×minor axis×0.5. The test was conducted using 5 mice in each group, and the t-test was used as the test.

For data set [4], the system named is ICAM-1 (intercellular adhesion molecule 1). Kind of data set: Virus receptor expression by real-time PCR in WiDr cells, ICAM-1. As to conditions: oxaliplatin 50 μM about 42 hours, or CVA11 added about 20 hours after seeding, t-test. It is filed as cell-based, human. As for the experimental part:
(§1) The cultured oxaliplatin-resistant colon cancer cell line (WiDr) was suspended in DMEM medium at 3×10^6 cells/mL. To each well of a 96-well plate, 100 μl of the obtained cell suspension was dispensed and the cells were seeded at 3×10^5 cells/well. […] Thereafter, the plate was allowed to stand for about 42 hours at 37° C., 5% CO2, and then mRNA was collected to prepare cDNA. […] The expressions of DAF (decay accelerating factor) and ICAM-1 (intercellular adhesion molecule 1) were compared by real-time PCR. The t-test was used as the test.
(In qPCR the cycle at which signal appears reflects the starting amount.)

The test system of data set [5] is DAF (decay accelerating factor). The experiment in a line: Virus receptor expression by real-time PCR in WiDr cells, DAF. It is filed as cell-based, human. As to conditions: oxaliplatin 50 μM about 42 hours, or CVA11 added about 20 hours after seeding, t-test. As for the experimental part:
as §1

For data set [6], the system named is AAV. The experiment in a line: Promotion of AAV proliferation (virus copy number, real-time PCR) in WiDr cells. It is filed as cell-based. The method, then: pAAV-CMV Vector (manufactured by Takara Bio Co., Ltd.) was used as AAV. pAAV-CMV Vector was prepared using AAVpro (registered trademark) Helper Free System (manufactured by Takara Bio Co., Ltd.). The collected supernatant (virus solution) was stored at −80° C.
The cultured oxaliplatin-resistant colon cancer cell line (WiDr) was suspended in DMEM medium at […]. To each well of a 96-well plate, 100 μl of the obtained cell suspension was dispensed and the cells were seeded at 3×10^5 cells/well. […] Subsequently, the plate was allowed to stand for about 24 hours at 37° C., 5% CO2, and then AAV was added thereto at a MOI of 0.01. After the plate was allowed to stand for about 30 hours at 37° C., 5% CO2, virus copy numbers were measured using AAVpro (registered trademark) Titration Kit (for Real Time PCR) Ver.2 (manufactured by Takara Bio Co., Ltd.). The t-test was used as the test.

As for `N.N.[Cl][Pt][Cl]` [cisplatin], the “CVB3 virus load (virus titer)” value in data set [1] (cisplatin 0.5 or 1.0 μM, then CVB3 MOI 0.01) is listed as “no increase in CVB3 virus load was observed”.

Consider `O=c1[nH]cc(F)c(=O)[nH]1` [5-FU, 5-fluorouracil], for which the “CVA11 virus load (virus titer)” value in data set [2] (5-FU 50 μM) is recorded as “significant increase in CVA11 virus load”.

In the case of `O=C1[O][Pt]2([NH][C@@H]3CCCC[C@H]3[NH]2)[O]C1=O` [oxaliplatin], the “body weight loss, compared with untreated group” value in data set [3] is given as “no significant weight loss was observed”. Besides, the “expression of ICAM-1 (real-time PCR)” value in data set [4] was “significantly increased”. Also, the “CVB3 virus load (virus titer)” value is given as “significant increase” in data set [1] (oxaliplatin 1 μM, then CVB3 MOI 0.01, t-test) and “increase in CVB3 virus load was observed” in data set [1] (oxaliplatin 0.5 or 1.0 μM, then CVB3 MOI 0.01, about 30 hours). For the same molecule, the “expression of DAF (real-time PCR)” value in data set [5] was “significantly increased”. In addition, the “CVA11 virus load (virus titer)” value in data set [2] (oxaliplatin 50 μM, vs CVA11 only) was “significant increase in CVA11 virus load”. In addition, the “copy number of AAV” value in data set [6] (oxaliplatin 0.25, 0.5, 1.0 or 2.5 μM, then AAV MOI 0.01, about 30 hours, t-test) was “significant, increase in the copy number of AAV”; in data set [6] (oxaliplatin 0.25 to 1.0 μM, then AAV MOI 0.01), “remarkable increase”.

Take `CCc1c2c(nc3ccc(O)cc13)-c1cc3c(c(=O)n1C2)COC(=O)[C@]3(O)CC` [SN-38, 7-ethyl-10-hydroxycamptothecin]: the “CVA11 virus load (virus titer)” value in data set [2] (SN-38 1.0, 5.0 or 50 μM) is given as “significant increase in CVA11 virus load”.
